# From PMC6044610 (ACS Omega, 2016)
# Columns and labels:
# [1] = tested on: P. falciparum (CQ-resistant) W2 strain; assay: In vitro antimalarial SYBR Green I fluorescence assay, Pf W2; type: cell-based; conditions: Plasmodium falciparum, W2, 72 h, read-out: IC50 Pf W2
# [2] = cited from earlier work
# [3] = tested on: P. falciparum (3D7) trophozoite development; type: cell-based, Plasmodium falciparum; conditions: 5 μM, ~24 h treatment from midring stage
smiles,measurement,setting,value
"CCN(CC)CCCC(C)Nc1ccnc2cc(Cl)ccc12 (stereo not drawn) [CQ, chloroquine]",IC50,[1],430.6 ± 1.05 nM
same,"log Kass with heme, reported value",[2],5.15
same,hemozoin in the food vacuole / parasite development after treatment,[3],no hemozoin was seen in the food vacuole
